Molecules are shown by their SMILES. Where two headings read alike, the source gives them in different places.

Holding throughout (format): binding
The target of assay [1] is T1, HeLa cell extract proteins (Homo sapiens, UniProt O43143).
T1 construct: endogenous in cells; host or cells: HeLa cell extract

In assay [2] the target is T2, HeLa cell extract proteins (Homo sapiens, UniProt P10599).
T2 construct: endogenous in cells; host or cells: HeLa cell extract
T2 sequence (P10599 1-105): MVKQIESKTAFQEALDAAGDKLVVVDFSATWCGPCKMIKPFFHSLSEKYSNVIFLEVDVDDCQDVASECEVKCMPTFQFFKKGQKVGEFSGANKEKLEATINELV

Assay [3] has as its target T3, HeLa cell extract proteins (Homo sapiens, UniProt P39019).
T3 construct: endogenous in cells; host or cells: HeLa cell extract

The target of assay [4] is T4, HeLa cell extract proteins (Homo sapiens, UniProt P40763).
T4 construct: endogenous in cells; host or cells: HeLa cell extract
T4 sequence (P40763 whole entry): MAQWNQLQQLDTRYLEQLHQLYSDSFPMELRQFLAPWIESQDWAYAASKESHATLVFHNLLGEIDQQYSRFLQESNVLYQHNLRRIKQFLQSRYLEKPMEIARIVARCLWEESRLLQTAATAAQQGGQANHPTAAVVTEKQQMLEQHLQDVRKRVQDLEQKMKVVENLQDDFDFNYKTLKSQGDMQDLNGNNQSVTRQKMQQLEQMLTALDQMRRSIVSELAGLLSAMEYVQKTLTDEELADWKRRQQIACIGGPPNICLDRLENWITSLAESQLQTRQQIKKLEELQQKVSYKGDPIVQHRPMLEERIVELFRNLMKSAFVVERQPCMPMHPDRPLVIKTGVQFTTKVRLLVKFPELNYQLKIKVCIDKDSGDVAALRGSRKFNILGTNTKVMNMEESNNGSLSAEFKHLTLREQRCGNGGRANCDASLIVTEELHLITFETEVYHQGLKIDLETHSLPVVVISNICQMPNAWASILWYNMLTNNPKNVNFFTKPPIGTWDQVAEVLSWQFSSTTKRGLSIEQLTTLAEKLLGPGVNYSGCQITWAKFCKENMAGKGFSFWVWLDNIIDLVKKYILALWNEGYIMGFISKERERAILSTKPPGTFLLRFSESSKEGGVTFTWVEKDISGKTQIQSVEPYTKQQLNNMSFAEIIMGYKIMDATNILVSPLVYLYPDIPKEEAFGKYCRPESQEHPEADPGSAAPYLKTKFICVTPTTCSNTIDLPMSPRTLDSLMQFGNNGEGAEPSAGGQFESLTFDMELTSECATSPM

In assay [5] the target is T5, HeLa cell extract proteins (Homo sapiens, UniProt Q14978).
T5 construct: endogenous in cells; host or cells: HeLa cell extract
T5 sequence (Q14978 1-699): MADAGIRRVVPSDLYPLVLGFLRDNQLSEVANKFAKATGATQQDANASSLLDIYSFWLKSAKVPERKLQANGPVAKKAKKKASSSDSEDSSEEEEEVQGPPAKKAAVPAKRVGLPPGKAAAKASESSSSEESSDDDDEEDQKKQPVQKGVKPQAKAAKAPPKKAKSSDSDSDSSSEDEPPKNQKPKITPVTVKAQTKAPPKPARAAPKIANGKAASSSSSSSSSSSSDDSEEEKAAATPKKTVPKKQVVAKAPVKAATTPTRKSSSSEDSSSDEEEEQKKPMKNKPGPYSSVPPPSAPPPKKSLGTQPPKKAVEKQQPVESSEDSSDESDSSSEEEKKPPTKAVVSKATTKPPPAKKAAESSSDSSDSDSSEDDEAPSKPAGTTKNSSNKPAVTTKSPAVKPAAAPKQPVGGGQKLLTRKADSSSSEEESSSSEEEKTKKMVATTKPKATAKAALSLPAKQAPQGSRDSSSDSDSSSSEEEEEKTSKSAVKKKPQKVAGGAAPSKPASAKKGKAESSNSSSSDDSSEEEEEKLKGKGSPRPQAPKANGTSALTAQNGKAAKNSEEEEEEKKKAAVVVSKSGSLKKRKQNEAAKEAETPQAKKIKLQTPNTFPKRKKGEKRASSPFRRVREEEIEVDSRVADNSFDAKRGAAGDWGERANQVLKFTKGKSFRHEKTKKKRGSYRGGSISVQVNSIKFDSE

The target of assay [6] is T6, HeLa cell extract proteins (Homo sapiens, UniProt Q15046).
T6 construct: endogenous in cells; host or cells: HeLa cell extract
T6 sequence (Q15046 whole entry): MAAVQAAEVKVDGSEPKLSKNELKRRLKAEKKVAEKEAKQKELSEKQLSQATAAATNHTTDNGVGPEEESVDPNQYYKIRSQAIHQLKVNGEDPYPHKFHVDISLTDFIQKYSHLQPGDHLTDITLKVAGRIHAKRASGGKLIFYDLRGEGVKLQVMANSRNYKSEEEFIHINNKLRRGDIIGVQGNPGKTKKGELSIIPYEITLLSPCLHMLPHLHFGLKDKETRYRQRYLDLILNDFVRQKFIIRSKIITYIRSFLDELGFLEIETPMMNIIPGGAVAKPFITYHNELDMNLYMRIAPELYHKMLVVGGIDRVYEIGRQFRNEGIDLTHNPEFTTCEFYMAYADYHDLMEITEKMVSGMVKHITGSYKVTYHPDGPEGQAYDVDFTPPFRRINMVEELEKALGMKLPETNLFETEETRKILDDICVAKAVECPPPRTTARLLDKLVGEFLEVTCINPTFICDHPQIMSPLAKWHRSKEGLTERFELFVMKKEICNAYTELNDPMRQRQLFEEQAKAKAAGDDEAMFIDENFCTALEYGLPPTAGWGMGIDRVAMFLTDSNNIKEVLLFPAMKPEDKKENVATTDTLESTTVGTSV

The target of assay [7] is T7, HeLa cell extract proteins (Homo sapiens, UniProt Q15084).
T7 construct: endogenous in cells; host or cells: HeLa cell extract
T7 sequence (Q15084 20-440): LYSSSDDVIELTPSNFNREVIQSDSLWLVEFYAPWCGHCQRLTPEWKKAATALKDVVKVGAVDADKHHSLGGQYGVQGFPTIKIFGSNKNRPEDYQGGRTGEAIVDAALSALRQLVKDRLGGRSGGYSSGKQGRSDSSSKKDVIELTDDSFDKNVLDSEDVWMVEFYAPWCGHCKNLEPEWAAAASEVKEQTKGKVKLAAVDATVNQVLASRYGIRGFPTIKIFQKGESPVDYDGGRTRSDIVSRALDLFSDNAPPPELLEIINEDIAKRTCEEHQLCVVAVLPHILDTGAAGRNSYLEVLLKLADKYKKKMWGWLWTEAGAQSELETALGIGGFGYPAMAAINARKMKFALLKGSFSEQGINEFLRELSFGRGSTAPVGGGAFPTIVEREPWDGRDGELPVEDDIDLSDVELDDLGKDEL

Assay [8] addresses T8, HeLa cell extract proteins (Homo sapiens, UniProt Q15907).
T8 construct: endogenous in cells; host or cells: HeLa cell extract
T8 sequence (Q15907 1-218): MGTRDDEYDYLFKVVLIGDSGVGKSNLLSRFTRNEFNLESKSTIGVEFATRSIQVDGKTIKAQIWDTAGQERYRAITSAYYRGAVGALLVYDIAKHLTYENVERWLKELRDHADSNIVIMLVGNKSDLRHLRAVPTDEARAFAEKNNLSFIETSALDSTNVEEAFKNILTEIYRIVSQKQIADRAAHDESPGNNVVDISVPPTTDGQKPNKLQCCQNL

The target in assay [9] is T9, HeLa cell extract proteins (Homo sapiens, UniProt Q8NEZ5).
T9 construct: endogenous in cells; host or cells: HeLa cell extract
T9 sequence (Q8NEZ5 1-403): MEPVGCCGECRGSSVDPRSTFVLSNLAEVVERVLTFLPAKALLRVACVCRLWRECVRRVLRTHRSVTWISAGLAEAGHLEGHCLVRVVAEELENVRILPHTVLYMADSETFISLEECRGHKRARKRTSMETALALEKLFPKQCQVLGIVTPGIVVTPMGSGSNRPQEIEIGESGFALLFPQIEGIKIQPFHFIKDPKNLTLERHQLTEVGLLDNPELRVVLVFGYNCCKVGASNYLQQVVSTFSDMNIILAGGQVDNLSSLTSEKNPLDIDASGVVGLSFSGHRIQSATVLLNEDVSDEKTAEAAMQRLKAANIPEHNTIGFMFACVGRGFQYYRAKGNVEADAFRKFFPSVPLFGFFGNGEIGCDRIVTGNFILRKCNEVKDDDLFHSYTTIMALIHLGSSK

Assay [10] concerns the target T10, HeLa cell extract proteins (Homo sapiens, UniProt Q99720).
T10 construct: endogenous in cells; host or cells: HeLa cell extract

Assay [11] has as its target T11, HeLa cell extract proteins (Homo sapiens, UniProt Q9P2K8).
T11 construct: endogenous in cells; host or cells: HeLa cell extract

[12] abbreviates: HeLa, protein RPS19 (40S RIBOSOMAL PROTEIN S19).

T1 sequence (O43143 whole entry): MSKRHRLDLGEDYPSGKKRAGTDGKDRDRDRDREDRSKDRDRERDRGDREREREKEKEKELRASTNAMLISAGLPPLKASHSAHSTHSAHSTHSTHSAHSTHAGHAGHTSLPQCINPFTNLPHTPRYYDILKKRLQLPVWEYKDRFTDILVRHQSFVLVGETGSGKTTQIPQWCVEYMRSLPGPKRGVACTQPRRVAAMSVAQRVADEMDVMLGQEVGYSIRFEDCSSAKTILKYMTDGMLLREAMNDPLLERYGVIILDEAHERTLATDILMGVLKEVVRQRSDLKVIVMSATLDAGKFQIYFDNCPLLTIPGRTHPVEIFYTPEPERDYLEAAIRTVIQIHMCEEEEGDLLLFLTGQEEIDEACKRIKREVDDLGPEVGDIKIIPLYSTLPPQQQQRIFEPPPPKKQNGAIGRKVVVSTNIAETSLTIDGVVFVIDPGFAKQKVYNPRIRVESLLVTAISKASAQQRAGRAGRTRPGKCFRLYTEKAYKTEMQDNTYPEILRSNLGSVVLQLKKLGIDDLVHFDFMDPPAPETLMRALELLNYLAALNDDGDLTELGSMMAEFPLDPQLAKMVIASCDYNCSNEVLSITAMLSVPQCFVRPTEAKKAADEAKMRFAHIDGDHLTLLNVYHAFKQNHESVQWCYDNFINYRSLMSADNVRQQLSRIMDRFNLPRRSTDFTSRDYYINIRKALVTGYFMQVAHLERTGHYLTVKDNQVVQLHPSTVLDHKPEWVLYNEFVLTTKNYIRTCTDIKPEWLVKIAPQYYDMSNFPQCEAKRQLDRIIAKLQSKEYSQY
T10 sequence (Q99720 whole entry): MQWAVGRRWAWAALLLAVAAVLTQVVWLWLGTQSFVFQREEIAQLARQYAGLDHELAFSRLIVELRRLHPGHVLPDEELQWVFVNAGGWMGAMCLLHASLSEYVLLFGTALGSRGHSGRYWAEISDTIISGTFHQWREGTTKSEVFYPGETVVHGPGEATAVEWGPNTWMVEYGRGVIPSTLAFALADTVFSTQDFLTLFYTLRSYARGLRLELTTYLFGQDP
T11 sequence (Q9P2K8 whole entry): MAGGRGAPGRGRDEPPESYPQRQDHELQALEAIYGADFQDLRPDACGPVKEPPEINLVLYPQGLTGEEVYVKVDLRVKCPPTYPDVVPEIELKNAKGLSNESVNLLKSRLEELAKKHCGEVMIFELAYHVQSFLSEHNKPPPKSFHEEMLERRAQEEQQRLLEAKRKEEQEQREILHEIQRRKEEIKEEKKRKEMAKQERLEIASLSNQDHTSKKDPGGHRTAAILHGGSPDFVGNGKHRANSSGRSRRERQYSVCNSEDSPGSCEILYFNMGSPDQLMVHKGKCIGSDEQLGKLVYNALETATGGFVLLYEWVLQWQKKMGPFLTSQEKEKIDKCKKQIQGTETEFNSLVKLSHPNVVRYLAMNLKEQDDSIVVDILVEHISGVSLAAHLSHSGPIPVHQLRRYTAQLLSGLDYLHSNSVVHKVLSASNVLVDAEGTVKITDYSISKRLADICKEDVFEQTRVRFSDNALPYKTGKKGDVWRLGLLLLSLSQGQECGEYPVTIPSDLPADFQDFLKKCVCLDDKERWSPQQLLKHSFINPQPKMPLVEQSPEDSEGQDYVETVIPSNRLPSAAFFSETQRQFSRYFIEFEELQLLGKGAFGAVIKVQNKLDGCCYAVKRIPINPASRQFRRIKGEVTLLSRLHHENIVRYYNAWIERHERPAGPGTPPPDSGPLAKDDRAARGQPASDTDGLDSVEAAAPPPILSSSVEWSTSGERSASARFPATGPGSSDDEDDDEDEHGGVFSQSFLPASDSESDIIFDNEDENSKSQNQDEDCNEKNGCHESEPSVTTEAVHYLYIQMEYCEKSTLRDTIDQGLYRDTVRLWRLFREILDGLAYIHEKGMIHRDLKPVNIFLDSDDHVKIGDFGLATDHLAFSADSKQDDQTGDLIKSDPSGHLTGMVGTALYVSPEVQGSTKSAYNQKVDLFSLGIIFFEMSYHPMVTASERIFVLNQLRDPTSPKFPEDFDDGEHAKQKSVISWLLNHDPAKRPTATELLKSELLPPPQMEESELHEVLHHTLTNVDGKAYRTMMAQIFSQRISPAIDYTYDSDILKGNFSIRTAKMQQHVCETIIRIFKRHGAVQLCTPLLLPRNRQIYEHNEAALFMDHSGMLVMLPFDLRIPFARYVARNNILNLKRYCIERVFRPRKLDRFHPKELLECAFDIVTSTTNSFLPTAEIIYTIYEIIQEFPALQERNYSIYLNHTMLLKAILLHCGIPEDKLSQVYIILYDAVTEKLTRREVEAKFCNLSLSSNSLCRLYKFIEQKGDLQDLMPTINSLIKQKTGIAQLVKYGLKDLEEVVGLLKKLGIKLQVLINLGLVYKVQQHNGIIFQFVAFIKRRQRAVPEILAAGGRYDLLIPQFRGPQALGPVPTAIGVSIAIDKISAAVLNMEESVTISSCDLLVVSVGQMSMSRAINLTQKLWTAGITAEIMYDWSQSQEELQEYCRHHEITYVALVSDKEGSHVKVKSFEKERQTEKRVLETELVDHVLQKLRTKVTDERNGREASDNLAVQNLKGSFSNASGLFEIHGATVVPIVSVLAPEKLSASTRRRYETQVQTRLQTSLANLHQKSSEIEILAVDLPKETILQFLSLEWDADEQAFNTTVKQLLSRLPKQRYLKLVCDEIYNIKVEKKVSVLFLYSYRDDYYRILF

Regarding `CCCCCCOc1cccc(Cc2cnc(N)nc2N)c1` [compound 2], the “fold changes relative to vehicle control” value in assay [1] (captured protein DHX15, HeLa) is on record as 0.9; in [2] (captured protein TXN, HeLa), 1.18; in assay [3] (protein RPS19, HeLa) it was 1.19; in assay [4] (protein STAT3, HeLa) it was 1.1; in assay [5] (protein NOLC1, HeLa), 1.44; in assay [6] (protein KARS, HeLa) it was 1.12. For the same compound, the “fold changes relative to vehicle control” value is reported as 1.75 in assay [7] (protein PDIA6, HeLa); 1.44 in assay [8] (protein RAB11B, HeLa); 1.02 in assay [9] (captured protein FBXO22, HeLa); 0.99 in assay [10] (HeLa, protein SIGMAR1); 0.96 in assay [11] (captured protein EIF2AK4, HeLa).
Consider `NCCOCCOCC(=O)Nc1nc2ncc(CNc3ccc(C(=O)NC(CCC(=O)O)C(=O)O)cc3)nc2c(=O)[nH]1` (centres unmarked) [compound 6], for which the “fold changes relative to vehicle control” value in [1] (protein DHX15, HeLa) was found to be 0.83; in assay [2] (HeLa, protein TXN), 1.28; in [3] (setting [12]) it was 1.1; in [4] (protein STAT3, HeLa), 0.91; in assay [5] (protein NOLC1, HeLa), 0.96; in assay [6] (HeLa, captured protein KARS) it was 1.04. In addition, the “fold changes relative to vehicle control” value in [7] (HeLa, protein PDIA6) worked out at 1.35; in [8] (HeLa, protein RAB11B) it was 1.14; in assay [9] (HeLa, protein FBXO22), 0.82; in assay [10] (HeLa, protein SIGMAR1), 0.96; in [11], 1.02.
As for `CCCCCCOc1ccc(Cc2cnc(N)nc2N)cc1` [compound 1], the “fold changes relative to vehicle control” value in [1] (captured protein DHX15, HeLa) is 0.71; in assay [2] (captured protein TXN, HeLa) it was 0.95; in assay [3] (protein RPS19, HeLa), 0.98; in assay [4] (protein STAT3, HeLa) it was 0.87; in [5] (protein NOLC1, HeLa), 0.9; in assay [6] (protein KARS, HeLa), 0.74. Besides, the “fold changes relative to vehicle control” value in [7] (protein PDIA6, HeLa) is 1.09; in assay [8] (protein RAB11B, HeLa), 1.02; in assay [9] (captured protein FBXO22, HeLa) it was 0.89; in assay [10] (HeLa, protein SIGMAR1) it was 0.99; in [11] (captured protein EIF2AK4, HeLa), 0.97.
`Nc1nc2c(c(=O)[nH]1)N(C=O)C(CNc1ccc(C(=O)N[C@@H](CCC(=O)O)C(=O)O)cc1)CN2` (some centres unmarked) [LEU, leucovorin]: the “fold changes relative to vehicle control” value in assay [1] (protein DHX15, HeLa) came to 0.74; in assay [2] (HeLa, protein TXN), 1.05; in [3] (setting [12]), 1.12; in assay [4] (protein STAT3, HeLa), 0.81; in assay [5] (protein NOLC1, HeLa), 0.93; in assay [6] (HeLa, captured protein KARS), 0.91. The “fold changes relative to vehicle control” value in assay [7] (HeLa, protein PDIA6) was determined as 1.03; in assay [8] (HeLa, protein RAB11B) it was 0.87; in assay [9] (HeLa, protein FBXO22), 1; in assay [10] (HeLa, protein SIGMAR1) it was 1.04; in [11] (HeLa, protein EIF2AK4 (ISOFORM 1 OF EUKARYOTIC TRANSLATION INITIATION FACTOR 2-ALPHA KINASE 4)), 0.83.
Turning to `NCCCNc1ccc(C(=O)NC(CCC(=O)O)C(=O)O)cc1` (centres unmarked) [compound 7], the “fold changes relative to vehicle control” value amounted to 0.75 in assay [1] (protein DHX15, HeLa); 1.33 in [2] (HeLa, protein TXN); 1.06 in [3] (setting [12]); 1 in assay [4] (protein STAT3, HeLa); 0.9 in assay [5] (protein NOLC1, HeLa); 1.07 in assay [6] (HeLa, captured protein KARS). The “fold changes relative to vehicle control” value in assay [7] (HeLa, protein PDIA6) is recorded as 1; in assay [8] (HeLa, protein RAB11B), 0.84; in [9] (HeLa, protein FBXO22), 0.98; in assay [10] (HeLa, protein SIGMAR1), 1.05; in assay [11], 1.02.
Take `Nc1nc2[nH]cc(CCc3ccc(C(=O)N[C@@H](CCC(=O)O)C(=O)O)cc3)c2c(=O)[nH]1` [PTX, pemetrexed]: the “fold changes relative to vehicle control” value in [1] is on record as 0.71; in assay [2], 1.13; in assay [3], 1.11; in assay [4], 0.73; in assay [5], 0.87; in [6] it was 0.96. In addition, the “fold changes relative to vehicle control” value in assay [7] is on record as 1.12; in [8] it was 0.94; in assay [9], 1; in assay [10], 0.99; in [11], 0.65.
For `Nc1nc2cccc(-c3ccccc3)c2n1Cc1ccc(Cl)c(Cl)c1` [compound 3], the “fold changes relative to vehicle control” value in [1] (captured protein DHX15, HeLa) is listed as 0.62; in assay [2] (captured protein TXN, HeLa), 1.12; in [3] (protein RPS19, HeLa), 1.01; in assay [4] (protein STAT3, HeLa), 1.15; in [5] (protein NOLC1, HeLa), 0.96; in assay [6] (protein KARS, HeLa), 1.13. In addition, the “fold changes relative to vehicle control” value is given as 0.89 in assay [7] (protein PDIA6, HeLa); 0.97 in [8] (protein RAB11B, HeLa); 0.96 in [9] (captured protein FBXO22, HeLa); 1.1 in assay [10] (HeLa, protein SIGMAR1); 1.02 in assay [11] (captured protein EIF2AK4, HeLa).

The record behind these values is paper PMC6199744, “Development of Chemical Proteomics for the Folateome and Analysis of the Kinetoplastid Folateome” (ACS Infectious Diseases, 2018).
